In patent US20030039672A1, “Cosmetic composition and method of treating skin” (Unilever Home & Personal Care USA, Division of Conopco, Inc., priority 2001, published 2003):

Assays:
Format in all cases: cell-based
[1] = tested on: procollagen-I synthesis in human dermal fibroblasts; experiment: Dot blot assay for procollagen-I protein in dermal fibroblast conditioned medium; settings: for Procollagen Level: 24 hours, relative to vehicle treated control value of 100
Protocol: (§1) Primary human foreskin fibroblasts at passage 2 (P2) were seeded into 12-well plates at 10000 cells/cm^2 and maintained for 24 hours in an atmosphere of 5% carbon dioxide and 4% oxygen in Dulbeccos Modified Eagles Medium (DMEM) supplemented with 10% foetal calf serum. After this time the cells were washed with serum free DMEM and then incubated in fresh serum free DMEM for a further 60 hours. The fibroblast monolayers were then washed again with serum free DMEM. Test reagents and vehicle controls were added to the cells in triplicate in a final volume of 0.4 ml/well fresh serum free DMEM and incubated for a further 24 hours. This fibroblast conditioned medium was either analysed immediately or snap frozen in liquid nitrogen and stored at −70° C. for future analysis. The cells were then counted and data from the dot-blot analysis subsequently standardised to cell number.
(§2) Samples of conditioned medium from dermal fibroblasts treated with vehicle (as a control) or test reagents were supplemented with 20 mM dithiothreitol (1:10 dilution of 200 mM stock solution) and 0.1% sodium dodecylsulphate (1:100 dilution of 10% stock solution), mixed well and then incubated at 75° C. for 2 minutes. A standard for the assay was generated by serial dilution of neat fibroblast conditioned medium from fibroblasts seeded at 10000 cells/cm^2 in a 175 cm^2 flask and maintained in serum free DMEM as described above. […]
(§3) Following this the Immobilon strips were again washed with TBS/Tween 20 (3×5 minutes) before being allowed to dry in air at room temperature. […] Dot intensity was assessed by computer-assisted image analysis using the quantification tools in ImageQuant™, standardised to cell number and the effects of various test reagents on decorin and procollagen-I synthesis were determined relative to a vehicle treated control value of 100 arbitrary units.
(§4) In order to normalise the results the effects of the test substance was determined relative to a vehicle treated control value of 100 arbitrary units.

[2] = tested on: decorin synthesis in human dermal fibroblasts; experiment: Dot blot assay for decorin protein in dermal fibroblast conditioned medium; settings: for Decorin Level: 24 hours, relative to vehicle treated control value of 100
Protocol: as §1, §2, §3, §4

[3] = tested on: Human foreskin keratinocytes; experiment: Cornified envelope production in keratinocytes (silver-stained dot blot); settings: for Cornified Envelope % Control / Cornified Envelope Mean: 4 days of treatment
Protocol: (§5) Human foreskin keratinocytes at passage 3 (P3) were seeded into 96 well plates at 4000 cells/well in Dubleccos Modified Eagles Medium (DMEM), 0.03 mM calcium. The cells were grown for 3 days prior to treatment. The treatment vehicle was DMSO. After 4 days of treatment, the cells were harvested and washed three times with 100 μl phosphate buffered saline (PBS). The cells were then extracted in 1% Triton X100, 50 mM Tris pH 8.0, 0.02 mM Leupeptin, 0.02 mM Pepstatin. 60 il/well of extract was then assayed for DNA concentration (ng/well), Pico Green DNA assay, Molecular Probes.
The cells were then washed in 200 μl PBS, and then 100 μl of 2% SDS, 20 mM DTT was added to each well. The plates were then sealed with a Titertek plate sealer (ICN) and incubated at 60° C. over night in an air tight damp environment (i.e. a sealed sandwich box lined with damp paper). The extract was then filtered through a PVDF transfer membrane (Bio-rad) under gravity using Dot-Blot apparatus (Bio-rad). The membrane is then washed in distilled water prior to silver staining (Bio-rad Silver Stain kit). The stained dot blot membrane is then analysed using Phoretix array software (Phoretix International).

[4] = tested on: Human foreskin keratinocytes; experiment: DNA concentration of keratinocyte extract (Pico Green DNA assay); settings: 4 days of treatment
Protocol: as §5

[5] = human dermal fibroblasts, statement in words

## CC/C=C\C/C=C\C/C=C\CCCCCC(=O)O [Hexadecatrienoic acid, hexadecatrienoic acid (C16:3(c7, c10, c13))]
[1]; 1 μM
  Procollagen Level: 91.0 arbitrary units
[1]; 10 μM
  Procollagen Level: 184.2 arbitrary units
[1]; [5]
  synthesis of procollagen-I as compared to the control: significantly upregulates
[2]; 1 μM
  Decorin Level: 108.7 arbitrary units
[2]; 10 μM
  Decorin Level: 115.4 arbitrary units
[2]; [5]
  synthesis of decorin as compared to the control: significantly upregulates
[3]; 0.1 μM
  Cornified Envelope % Control: 98 % Control
  Cornified Envelope Mean: 17617
[3]; 0.5 μM
  Cornified Envelope % Control: 133 % Control
  Cornified Envelope Mean: 24009
[3]; 1 μM
  Cornified Envelope % Control: 200 % Control
  Cornified Envelope Mean: 36017
[3]; 10 μM
  Cornified Envelope % Control: 227 % Control
  Cornified Envelope Mean: 40997
[3]; 1-10 μM application, statement in words
  cornified envelope production: increased
[4]; 0.1 μM
  DNA Results % Control: 59 % Control
  DNA Results Mean: 0.98 ng/well
[4]; 0.5 μM
  DNA Results % Control: 89 % Control
  DNA Results Mean: 1.48 ng/well
[4]; 1 μM
  DNA Results % Control: 76 % Control
  DNA Results Mean: 1.27 ng/well
[4]; 10 μM
  DNA Results % Control: 68 % Control
  DNA Results Mean: 1.13 ng/well
